Laboratory results published in patent US12156880B2, “Heterocyclic RIP1 kinase inhibitors” (Rigel Pharmaceuticals, Inc., priority 2021, dated 2024).

What was measured:
RIPK1 = molecular target: T1, RIPK1 (Homo sapiens, UniProt Q13546); test: RIPK1 ADP-Glo biochemical kinase assay; settings: read-out: RIPK1 ADP-Glo Kinase (IC50)
T1 sequence (Q13546 1-671): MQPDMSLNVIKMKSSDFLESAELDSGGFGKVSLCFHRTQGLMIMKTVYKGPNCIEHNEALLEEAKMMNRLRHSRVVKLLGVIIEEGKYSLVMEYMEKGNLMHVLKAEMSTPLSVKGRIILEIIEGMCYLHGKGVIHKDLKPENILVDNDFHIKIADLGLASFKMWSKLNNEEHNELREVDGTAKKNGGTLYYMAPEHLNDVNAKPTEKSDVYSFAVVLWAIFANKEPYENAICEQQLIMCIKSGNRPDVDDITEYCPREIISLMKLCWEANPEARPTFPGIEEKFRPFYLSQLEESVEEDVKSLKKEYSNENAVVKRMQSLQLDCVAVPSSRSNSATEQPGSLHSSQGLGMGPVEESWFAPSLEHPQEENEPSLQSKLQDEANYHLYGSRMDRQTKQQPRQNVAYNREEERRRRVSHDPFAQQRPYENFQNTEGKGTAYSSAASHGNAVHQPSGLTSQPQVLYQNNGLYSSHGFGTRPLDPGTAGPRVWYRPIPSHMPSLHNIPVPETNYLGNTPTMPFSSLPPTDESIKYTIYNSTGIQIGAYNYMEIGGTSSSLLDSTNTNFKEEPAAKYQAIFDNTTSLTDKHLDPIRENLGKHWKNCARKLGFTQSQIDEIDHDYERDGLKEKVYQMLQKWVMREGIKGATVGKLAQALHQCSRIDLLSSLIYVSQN
Experimental: In this example, compounds of the disclosure were evaluated using a biochemical assay using the ADP-Glo™ technology.
ADP-Glo™ (Promega, Madison, WI, USA) reagents were thawed at ambient temperature. Kinase Detection Reagent was prepared by mixing kinase detection buffer with the lyophilized kinase detection substrate.
A […] stock volume of 5× Reaction Kinase Buffer was made by mixing 1000 μl of 1M MgCl2, 500 μl of 1M Tris-HCL pH7.4, 0.5 mg/ml (25 mg) of BSA, and 3475 μl of distilled H2O. A 3 ml 2× working stock volume of Reaction Kinase Buffer was made containing a final concentration of 100 μM DTT and 4 mM MnCl2.
Components of RIPK1 enzyme (Rigel Pharmaceuticals, South San Francisco, CA, USA) were thawed on ice. Diluted RIPK1 was prepared in 1× Kinase Reaction Buffer (diluted from 2× buffer) to 31 ng/well.
1.0 ul of diluted compound was added to a 384 well plate in duplicate. […] The final reaction volume was 5.0 μl.
The plate was quickly centrifuged and the reaction was incubated at 30° C. for 30 minutes. Adding 5 μl of ADP-Glo™ terminated the reaction. The plate was quickly centrifuged and the reaction was incubated at room temperature for 40 minutes. Kinase Detection Reagent was then added and incubated at room temperature for 30 minutes. The relative light unit (RLU) of kinase reaction was determined by luminescent (Luminescence 0.1 s) using a Wallac Victor2 Luminometer (PerkinElmer, Waltham, MA, USA).

L929 cells = test: L929 cell necroptosis assay (TNFa + zVAD, CellTiter-Glo recovery); type: cell-based, murine; parameters: L929-CTG-recovery, L929, TNFa + zVAD (IC50): unit not given here; settings: TNFa 2 ng/mL + zVAD-fmk; for IC50: Mus musculus, L929, 18 h, read-out: L929-CTG-recovery, L929, TNFa + zVAD (IC50)
Experimental: (§1) In this example, U937 and L929 cells were exposed to compounds of the present disclosure and a cell necroptosis assay was conducted to evaluate the compounds' activity against human RIP1 and murine RIP1.
(§2) U937 and L929 cells were obtained from the American Type Culture Collection (Manassas, VA, USA). Both cells were maintained in logarithmic growth phase in complete RPMI 1640 media (Sigma, ST Louis, MO, USA) supplemented with 10% fetal bovine serum (Sigma, ST Louis, MO, USA) at 37° C. with 5% CO2. For necroptosis assay, L929 cells were plated for 18 h in 100 μL/well medium at 10K cells/well in Costar 96-well black clear-bottom plates (Fisher Scientific, Hampton, NH, USA); U937 cells were plated on the day of the assay in 50 μL/well medium containing 60 uM zVAD-fmk (Lonza, Basel, Switzerland) at 50K cells/well. Medium from L929 cells were removed from the 96-well plates and replaced with 50 μL/well new medium containing 40 uM zVAD-fmk. Each compound of the present disclosure evaluated in this example was serially diluted in DMSO from 2.5 mM in 4-fold dilutions, and then diluted 1:125 in complete medium. 50 μL/well 2× of the compound was then added to the cells in the plates. The cells were pre-incubated with the compound for 1 hour at 37° C. with 5% CO2 and before addition of 10 μL/well 11×TNFa (Peprotech, Rocky Hill, NJ, USA) to give a final concentration of 2 ng/mL for TNFa. The relative amount of necroptosis cells was determined by luminescent using a Wallac Victor2 Luminometer (PerkinElmer, Waltham, MA, USA) and a CellTiter-Glo® Luminescent Cell Viability Reagent Assay (Promega, Madison, WI, USA) added per manufacturer instructions after 18 hours of TNFa stimulation at 37° C. with 5% CO2. This example establishes that embodiments of the compounds described herein have unexpectedly potent activity against human RIP1 and murine RIP1, which allows their assessment in in vivo mouse models of disease.

U937 cells = test: U937 cell necroptosis assay (TNFa + zVAD, CellTiter-Glo recovery); type: cell-based; settings: Homo sapiens, U-937, 18 h, TNFa 2 ng/mL + zVAD-fmk, read-out: U937 Zvad TNF CTG Recovery, U937, TNFa + zVAD (IC50)
Experimental: as §1, §2

Compound: CN1C(=O)[C@@H](NC(=O)n2cc(Cc3cccc(C(F)(F)F)n3)cn2)COc2ccc(C#CC(C)(C)O)cc21 [I-9, (S)—N-(7-(3-Hydroxy-3-methylbut-1-yn-1-yl)-5-methyl-4-oxo-2,3,4,5-tetrahydrobenzo[b][1,4]oxazepin-3-yl)-4-((6-(trifluoromethyl)pyridin-2-yl)methyl)-1H-pyrazole-1-carboxamide]
- IC50 (RIPK1): 0.0643 µM
- IC50 (L929 cells): 2.69 µM
- IC50 (U937 cells): 0.163 µM

Compound: Cc1cccc(Cc2ccnc(C(=O)N[C@H]3COc4ccc(C#CC(C)(C)O)cc4N(C)C3=O)c2)n1 [I-11, (S)—N-(7-(3-hydroxy-3-methylbut-1-yn-1-yl)-5-methyl-4-oxo-2,3,4,5-tetrahydrobenzo[b][1,4]oxazepin-3-yl)-4-((6-methylpyridin-2-yl)methyl)picolinamide]
- IC50 (RIPK1): 0.12 µM
- IC50 (L929 cells): 7.43 µM
- IC50 (U937 cells): 0.126 µM

Compound: Cc1cccc(Cc2ccnc(C(=O)N[C@H]3COc4ccc(C#CC5(O)COC5)cc4N(C)C3=O)c2)n1 [I-12, (S)—N-(7-((3-hydroxyoxetan-3-yl)ethynyl)-5-methyl-4-oxo-2,3,4,5-tetrahydrobenzo[b][1,4]oxazepin-3-yl)-4-((6-methylpyridin-2-yl)methyl)picolinamide]
- IC50 (RIPK1): 0.0252 µM
- IC50 (L929 cells): 3.47 µM
- IC50 (U937 cells): 0.0734 µM

Compound: CN1C(=O)[C@@H](NC(=O)c2cc(Cc3cccc(F)n3)ccn2)COc2ccc(C#CC(C)(C)O)cc21 [I-13, (S)-4-((6-fluoropyridin-2-yl)methyl)-N-(7-(3-hydroxy-3-methylbut-1-yn-1-yl)-5-methyl-4-oxo-2,3,4,5-tetrahydrobenzo[b][1,4]oxazepin-3-yl)picolinamide]
- IC50 (RIPK1): 0.0212 µM
- IC50 (L929 cells): 1.31 µM
- IC50 (U937 cells): 0.042 µM

Compound: CN1C(=O)[C@@H](NC(=O)n2cc(Cc3cccnc3)cn2)COc2ccc(C#CC(C)(C)O)cc21 [I-14, (S)—N-(7-(3-Hydroxy-3-methylbut-1-yn-1-yl)-5-methyl-4-oxo-2,3,4,5-tetrahydrobenzo[b][1,4]oxazepin-3-yl)-4-(pyridin-3-ylmethyl)-1H-pyrazole-1-carboxamide]
- IC50 (RIPK1): 0.0176 µM
- IC50 (L929 cells): 1.17 µM
- IC50 (U937 cells): 0.0143 µM

Compound: Cc1ccc(Cc2cnn(C(=O)N[C@H]3COc4ccc(C#CC(C)(C)O)cc4N(C)C3=O)c2)cn1 [I-15, (S)—N-(7-(3-Hydroxy-3-methylbut-1-yn-1-yl)-5-methyl-4-oxo-2,3,4,5-tetrahydrobenzo[b][1,4]oxazepin-3-yl)-4-((6-methylpyridin-3-yl)methyl)-1H-pyrazole-1-carboxamide]
- IC50 (RIPK1): 0.0194 µM
- IC50 (L929 cells): 1.68 µM
- IC50 (U937 cells): 0.0275 µM

Compound: CN1C(=O)[C@@H](NC(=O)n2cc(Cc3ccc(F)nc3)cn2)COc2ccc(C#CC(C)(C)O)cc21 [I-16, (S)-4-((6-Fluoropyridin-3-yl)methyl)-N-(7-(3-hydroxy-3-methylbut-1-yn-1-yl)-5-methyl-4-oxo-2,3,4,5-tetrahydrobenzo[b][1,4]oxazepin-3-yl)-1H-pyrazole-1-carboxamide]
- IC50 (RIPK1): 0.0379 µM
- IC50 (L929 cells): 2.39 µM
- IC50 (U937 cells): 0.0172 µM

Compound: Cc1ccc(Cc2cnn(C(=O)N[C@H]3COc4ccc(Br)cc4N(C)C3=O)c2)cn1 [I-23, (S)—N-(7-Bromo-5-methyl-4-oxo-2,3,4,5-tetrahydrobenzo[b][1,4]oxazepin-3-yl)-4-((6-methylpyridin-3-yl)methyl)-1H-pyrazole-1-carboxamide]
- IC50 (RIPK1): 0.0257 µM
- L929-CTG-recovery, L929, TNFa + zVAD (IC50) (L929 cells; 18 hours): 5000
- IC50 (U937 cells): 0.0818 µM

Compound: CN1C(=O)[C@@H](NC(=O)c2cc(Cc3cccnc3F)ccn2)COc2ccc(C#CC3(O)COC3)cc21 [I-26, (S)-4-((2-fluoropyridin-3-yl)methyl)-N-(7-((3-hydroxyoxetan-3-yl)ethynyl)-5-methyl-4-oxo-2,3,4,5-tetrahydrobenzo[b][1,4]oxazepin-3-yl)picolinamide]
- IC50 (RIPK1): 0.0355 µM
- IC50 (L929 cells): 0.407 µM
- IC50 (U937 cells): 0.0053 µM

Compound: CN1C(=O)[C@@H](NC(=O)c2cc(Cc3cccnc3F)ccn2)COc2ccc(C#CC(C)(C)O)cc21 [I-27, (S)-4-((2-fluoropyridin-3-yl)methyl)-N-(7-(3-hydroxy-3-methylbut-1-yn-1-yl)-5-methyl-4-oxo-2,3,4,5-tetrahydrobenzo[b][1,4]oxazepin-3-yl)picolinamide]
- IC50 (RIPK1): 0.0193 µM
- IC50 (L929 cells): 0.622 µM
- IC50 (U937 cells): 0.0097 µM

Compound: CN1C(=O)[C@@H](NC(=O)n2cc(Cc3ccncc3)cn2)COc2ccc(C#CC(C)(C)O)cc21 [I-29, (S)—N-(7-(3-Hydroxy-3-methylbut-1-yn-1-yl)-5-methyl-4-oxo-2,3,4,5-tetrahydrobenzo[b][1,4]oxazepin-3-yl)-4-(pyridin-4-ylmethyl)-1H-pyrazole-1-carboxamide]
- IC50 (RIPK1): 0.0694 µM
- IC50 (L929 cells): 1.72 µM
- IC50 (U937 cells): 0.0472 µM

Compound: CN1C(=O)[C@@H](NC(=O)n2cc(Cc3cccc(F)n3)cn2)COc2ccc(C#CC3(O)COC3)cc21 [I-32, (S)-4-((6-Fluoropyridin-2-yl)methyl)-N-(7-((3-hydroxyoxetan-3-yl)ethynyl)-5-methyl-4-oxo-2,3,4,5-tetrahydrobenzo[b][1,4]oxazepin-3-yl)-1H-pyrazole-1-carboxamide]
- IC50 (RIPK1): 0.0162 µM
- IC50 (L929 cells): 0.682 µM
- IC50 (U937 cells): 0.0163 µM

Compound: CN1C(=O)[C@@H](NC(=O)n2cc(Cc3cccc(F)n3)cn2)COc2ccc(C#CC3(O)CCOCC3)cc21 [I-33, (S)-4-((6-Fluoropyridin-2-yl)methyl)-N-(7-((4-hydroxytetrahydro-2H-pyran-4-yl)ethynyl)-5-methyl-4-oxo-2,3,4,5-tetrahydrobenzo[b][1,4]oxazepin-3-yl)-1H-pyrazole-1-carboxamide]
- IC50 (RIPK1): 0.0171 µM
- IC50 (L929 cells): 1.13 µM
- IC50 (U937 cells): 0.0116 µM

Compound: CN1C(=O)[C@@H](NC(=O)n2cc(Cc3cccc(F)n3)cn2)COc2ccc(C#CC3CCOCC3)cc21 [I-34, (S)-4-((6-Fluoropyridin-2-yl)methyl)-N-(5-methyl-4-oxo-7-((tetrahydro-2H-pyran-4-yl)ethynyl)-2,3,4,5-tetrahydrobenzo[b][1,4]oxazepin-3-yl)-1H-pyrazole-1-carboxamide]
- IC50 (RIPK1): 0.0153 µM
- IC50 (L929 cells): 0.0681 µM
- IC50 (U937 cells): 0.0013 µM

Compound: CN1C(=O)[C@@H](NC(=O)n2cc(Cc3cccc(F)n3)cn2)CCc2ccc(Br)cc21 [I-35, (S)—N-(8-Bromo-1-methyl-2-oxo-2,3,4,5-tetrahydro-1H-benzo[b]azepin-3-yl)-4-((6-fluoropyridin-2-yl)methyl)-1H-pyrazole-1-carboxamide]
- IC50 (RIPK1): 0.0194 µM
- IC50 (L929 cells): 6.86 µM
- IC50 (U937 cells): 0.07 µM
